The subject of one data set is LNCaP tumors. Kind of data set: LNCaP xenograft in SCID mice, Q6DX2 (Example 24). Format: in vivo, CB17.SCID mice. The arrangement: key to Tumor Weight: tumor weight in mg. The procedure: The mean tumor weight was approximately 200 mg at Day 0. […] Studies were terminated at Day 60.
Data set [1] concerns CD10 transfected CHO cells, Clone #8. Kind of data set: 3H thymidine proliferation assay, CD10 transfected CHO Clone #8.
Method: The fully assembled coding region was sub-cloned into a mammalian expression vector, downstream of the hCMV-MIE promoter. DNA sequence analysis confirmed sequence identity with the coding sequence of human CD10 (Genbank accession number Y00811). The expression plasmid was linearized and stably transfected into CHO—S cells. CD10 expressing transfectant clones were selected under 500 ug/mL of hygromycin and screened by flow cytometry for cell-surface CD10 expression using a commercially available anti-CD10-FITC antibody.
In a further data set the test system is LNCaP xenografts. Kind of data set: LNCaP xenograft in SCID mice, Q6DX2, equitoxic comparison (Example 27). Format: in vivo, C.B-17.SCID mice. The procedure: All compounds except Suc-βAla-Leu-Ala-Leu-Dox (three levels) were dosed at two levels with the goal to get a dose response for all compounds.
Knowing that the LNCaP tumor bearing nude mice have weight loss, we chose very conservative dose levels for each compound estimated to be well-tolerated equitoxic doses based on earlier studies and SD-MTD results. The high dose level for repeat dosing is usually 80% of their SD-MTD, and the low dose level is 80% of the high dose level. Accordingly, groups of ten male CD17.SCID mice, subcutaneously injected with 2.5 million LNCaP cells, were treated intravenously with the compounds at the levels described in Table 22 at six day intervals for a total of two identical doses (Q6DX2).
LNCaP tumors grew well in SCID mice, but the SCID mice with LNCaP tumor xenografts experienced severe weight loss, as 80% of control mice had more than 25% of weight loss by the end of the study. Nevertheless, the efficacy of different treatments at approximately equitoxic levels were compared based on the time it took for 50% of mice to reach toxic weight loss and the total numbers of mice with toxic weight loss at the end of study.

The subject of data set [2] is HT-29 (colon carcinoma) cells. Kind of data set: cells. Format: cell-based, human. To be noted: 48 hours total incubation, read-out: IC50 HT29. How it is done: (§1) Adherent cells, LNCaP (prostate carcinoma), HT-29 (colon carcinoma) and PC-3 (prostate carcinoma), were cultured in DMEM media containing 10% heat inactivated fetal calf serum (FCS). On the day of the study the cells were detached from the plate with a trypsin solution. The collected cells were washed and resuspended at a concentration of 0.25×10^6 cells/ml in DMEM containing 10% FCS. 100 μl of cell suspension were added to 96 well plates and the plates were incubated for 3 hours to allow the cells to adhere. […] The plates were then incubated for 24 hours, pulsed with 10 μl of a 100 μCi/ml ^3H-thymidine and incubated for an additional 24 hours (total incubation time 48 hours). The plates were harvested using a 96 well Harvester (Packard Instruments) and counted on a Packard Top Count Counter. Four parameter logistic curves were fitted to the ^3H-thymidine incorporation as a function of drug molarity using Prism software to determine IC50 values.

For data set [3], the system named is PC-3 (prostate carcinoma) cells. Kind of data set: cells. Format: cell-based, human. The procedure:
as §1
as §1, with “carcinoma), PC-3 (prostate” for “carcinoma), HT-29 (colon”, “and 22 RV1” for “and PC-3”, “with 1:0” for “with 10”

The next data set deals with Namalwa cells (CD10pos). Kind of data set: cells. The class given is cell-based. As to conditions: for IC50: 24 hours; for Ratio Ball-1:Namalwa: ratio of IC50. How it is done:
Suspension cells, BALL-1, Ramos and Namalwa cells were cultured in RPMI media containing 10% heat inactivated fetal calf serum (FCS). On the day of the study, the cells were collected, washed and resuspended at a concentration of 0.5×10^6 cells/ml in RPMI containing 10% FCS. 100 µl of cell suspension was added to 96 well plates. […] Finally 10 μl of a 100 μCi/ml ^3H-thymidine was added per well and the plates were incubated for 24 hours. The plates were harvested using a 96 well Harvester (Packard Instruments) and counted on a Packard Top Count counter. Four parameter logistic curves were fitted to the ^3H-thymidine incorporation as a function of drug molarity using Prism software to determine IC50 values.

Data set [4] in a line: Pharmacokinetic/metabolism study, single IV bolus. To be noted: for Major Plasma Metabolite: mice; for Plasma AUC0-6 hr of AL-Dox or AG-Dox* / Plasma AUC0-6 hr of L-Dox or G-Dox*: single IV bolus approximately 100 μmol/Kg; for Plasma AUC0-6 hr of Dox: single IV bolus approximately 100 μmol/Kg of prodrug.
Method: Plasma was obtained from three individual animals in each group at 5 minutes, 1, 2, 4, or 6 hr.
A further data set relates to normal ICR mice. Kind of data set: Second single dose Maximum Tolerated Dose (SD-MTD) study, 49 days. As to conditions: for SD-MTD Molar Ratio (Dox=): relative to doxorubicin on a molar basis. How it is done:
In a second single dose Maximum Tolerated Dose (SD-MTD) study, groups of five normal ICR mice were administered intravenous bolus doses of Suc-βAla-Leu-Ala-Leu-Dox. The mice were observed daily for 49 days and body weights measured twice weekly.
In a second single dose Maximum Tolerated Dose (SD-MTD) study, groups of five normal ICR mice were administered intravenous bolus doses of Suc-Leu-Ala-Leu-Dox. The mice were observed daily for 49 days and body weights measured twice weekly.
In a second single dose Maximum Tolerated Dose (SD-MTD) study, groups of five normal ICR mice were administered intravenously bolus doses of Suc-Ile-Ala-Leu-Dox. The mice were observed daily for 49 days and body weights measured twice weekly.
In a second single dose Maximum Tolerated Dose (SD-MTD) study, groups of five normal ICR mice were administered intravenous bolus doses of Suc-βAla-Ile-Ala-Leu-Dox. The mice were observed daily for 49 days and body weights measured twice weekly.

A further data set deals with Porcine Kidney CD10. Kind of data set: Hydrolysis by purified CD10. As to conditions: for % hydrolysis/10 hr: 12.5 μg/mL, 37° C., pH 7.4, product Leu-doxorubicin; for Fraction hydrolyzed relative to standard: standard Suc-βAla-Leu-Ala-Leu-Dox. Format: biochemical. The procedure: Reaction products were analyzed by HPLC with fluorescence detection. Rates were essentially linear over the incubation period. The observed product was Leu-doxorubicin.

Four molecules from patent publication US20050267016A1, “CD-10 activated prodrug compounds” (priority 2001, published 2005) can be followed below.

Molecules are shown by their SMILES. Like-named read-outs stand apart in the source and are kept apart here.

As for `COc1cccc2c1C(=O)c1c(O)c3c(c(O)c1C2=O)C[C@@](O)(C(=O)CO)C[C@@H]3O[C@H]1C[C@H](N)[C@H](O)[C@H](C)O1` [Doxorubicin, reference compound], the “Toxic Endpt.” value in the data set with LNCaP tumors (3 mg/kg Q6DX2) amounted to 1; with LNCaP tumors (4 mg/kg Q6DX2), 2. Moreover, the “% Tumor Growth Inhibition” value stood at 21 ± 8% in the data set on LNCaP tumors (3 mg/kg Q6DX2, Day 12) and 26 ± 6% in the data set on LNCaP tumors (4 mg/kg Q6DX2, Day 12). Further, the “Tumor Weight” value in the data set on LNCaP tumors (3 mg/kg Q6DX2, Day 12) was found to be 328 ± 35; in the data set with LNCaP tumors (4 mg/kg Q6DX2, Day 12), 310 ± 25. The “Survivor (day 22)” value in the data set on LNCaP tumors (3 mg/kg Q6DX2, groups of ten) is reported as 9; in the data set on LNCaP tumors (4 mg/kg Q6DX2, groups of ten), 8. In addition, the IC50 in data set [1] (Cricetulus griseus, CHO, read-out: IC50 Clone #8) turned out to be 570 nM; in [2] (Homo sapiens, HT-29) it was 0.052 µM; in data set [3] (Homo sapiens, PC-3, 48 hours total incubation, read-out: IC50 PC-3), 75 nM; in data set [3] (Homo sapiens, PC-3, Table 6, 48 hours, read-out: IC50 PC-3 CD10−PSA−), 40 nM; in the data set on Namalwa cells (CD10pos) it was 0.01 µM. In addition, the “% Weight Loss at the end of study” value in the data set with LNCaP xenografts (3 mg/kg Q6DX2) is on record as 60%; in the data set on LNCaP xenografts (4 mg/kg Q6DX2, mice with toxic weight loss), 80%. Further, the “Growth Inhibition” value in the data set on LNCaP xenografts (3 mg/kg Q6DX2) and with LNCaP xenografts (4 mg/kg Q6DX2) was 29% in each case. Also, the “Time: 50% Weight Loss” value in the data set with LNCaP xenografts (3 mg/kg Q6DX2) came to 36 days; with LNCaP xenografts (4 mg/kg Q6DX2, time for 50% of mice to reach toxic weight loss) it was 33 days.
As to `CC[C@H](C)[C@H](NC(=O)CCC(=O)O)C(=O)N[C@@H](C)C(=O)N[C@@H](CC(C)C)C(=O)N[C@H]1C[C@H](O[C@H]2C[C@](O)(C(=O)CO)Cc3c(O)c4c(c(O)c32)C(=O)c2c(OC)cccc2C4=O)O[C@@H](C)[C@H]1O` [Suc-Ile-Ala-Leu-Dox], in the data set on LNCaP xenografts (75 mg/kg Q6DX2), the “Time: 50% Weight Loss” value turned out to be 26 days and the “Time: 100% Weight Loss” value is 43 days. In the data set with LNCaP xenografts (94 mg/kg Q6DX2), the “Time: 50% Weight Loss” value is 19 days and the “Time: 100% Weight Loss” value stood at 36 days. Moreover, in [4], the “Major Plasma Metabolite” value is given as “Leu-Dox”, the “Plasma AUC0-6 hr of AL-Dox or AG-Dox*” value turned out to be 1.0 µM·h, the “Plasma AUC0-6 hr of L-Dox or G-Dox*” value stood at 6.2 µM·h and the “Plasma AUC0-6 hr of Dox” value was 0.9 µM·h. Further, the IC50 in [2] came out at 47 µM. In addition, in the data set on normal ICR mice (intravenous bolus, Day 49), the “SD-MTD” value was found to be 94 mg/kg. The “SD-MTD Molar Ratio (Dox=)” value with normal ICR mice worked out at 3.5. Besides, in data set [3] (48 hours total incubation, read-out: IC50 PC-3), the IC50 turned out to be 88000 nM. Besides, in the data set on Namalwa cells (CD10pos), the IC50 turned out to be 6.47 µM and the “Ratio Ball-1:Namalwa” value stood at 4. In the data set with Porcine Kidney CD10, the “% hydrolysis/10 hr” value was found to be 12.5 % hydrolysis/10 hr and the “Fraction hydrolyzed relative to standard” value is 1.1.
With `CC[C@H](C)[C@H](NC(=O)CCNC(=O)CCC(=O)O)C(=O)N[C@@H](C)C(=O)N[C@@H](CC(C)C)C(=O)N[C@H]1C[C@H](O[C@H]2C[C@](O)(C(=O)CO)Cc3c(O)c4c(c(O)c32)C(=O)c2c(OC)cccc2C4=O)O[C@@H](C)[C@H]1O` [Suc-βAla-Ile-Ala-Leu-Dox], the “IC50 difference to Dox” value in data set [1] (CD10 transfected CHO cells) is on record as around 16 fold. For the same molecule, the “Ratio Suc-β-Ala-Ile-Ala-Leu/Dox” value in data set [1] (Clone #8, ratio of IC50) came to 15. For the same molecule, in the data set with LNCaP xenografts (50 mg/kg Q6DX2), the “% Weight Loss at the end of study” value was 80% and the “Time: 50% Weight Loss” value was 33 days. In the data set on LNCaP xenografts (62 mg/kg Q6DX2), the “Time: 50% Weight Loss” value stood at 12 days and the “Time: 100% Weight Loss” value was found to be 33 days. For the same molecule, in data set [4], the “Major Plasma Metabolite” value is “Leu-Dox”, the “Plasma AUC0-6 hr of AL-Dox or AG-Dox*” value amounted to 0.5 µM·h, the “Plasma AUC0-6 hr of L-Dox or G-Dox*” value amounted to 8.5 µM·h and the “Plasma AUC0-6 hr of Dox” value stood at 1.5 µM·h. Also, in the data set with normal ICR mice (100 mg/kg, by Day 21, groups of five), the “animals euthanized due to weight loss or paralysis” value is listed as “three”. In addition, the “SD-MTD Molar Ratio (Dox=)” value in the data set with normal ICR mice is listed as 2.6. Further, in the data set with Namalwa cells (CD10pos), the “Ratio Ball-1:Namalwa” value is listed as 172. Besides, in the data set with Porcine Kidney CD10, the “% hydrolysis/10 hr” value turned out to be 22.1 % hydrolysis/10 hr and the “Fraction hydrolyzed relative to standard” value was found to be 2.0.
`COc1cccc2c1C(=O)c1c(O)c3c(c(O)c1C2=O)C[C@@](O)(C(=O)CO)C[C@@H]3O[C@H]1C[C@H](NC(=O)[C@H](CC(C)C)NC(=O)[C@H](C)NC(=O)[C@H](CC(C)C)NC(=O)CCNC(=O)CCC(=O)O)[C@H](O)[C@H](C)O1` [Suc-βAla-Leu-Ala-Leu-Dox]: the “Toxic Endpt.” value in the data set with LNCaP tumors (40 mg/kg Q6DX2) is 0; with LNCaP tumors (50 mg/kg Q6DX2), 5; in the data set with LNCaP tumors (62 mg/kg Q6DX2), 6. In addition, the “Tumor Weight” value in the data set with LNCaP tumors (40 mg/kg Q6DX2, Day 12) worked out at 244 ± 25; in the data set with LNCaP tumors (50 mg/kg Q6DX2, Day 12) it was 168 ± 29; in the data set on LNCaP tumors (62 mg/kg Q6DX2, Day 12), 196 ± 22. Besides, the “Survivor (day 22)” value with LNCaP tumors (40 mg/kg Q6DX2, groups of ten) came out at 10; in the data set on LNCaP tumors (50 mg/kg Q6DX2, groups of ten), 5; in the data set on LNCaP tumors (62 mg/kg Q6DX2, groups of ten), 4. Also, the “Time: 50% Weight Loss” value with LNCaP xenografts (40 mg/kg Q6DX2) was 33 days; with LNCaP xenografts (50 mg/kg Q6DX2), 19 days; with LNCaP xenografts (62 mg/kg Q6DX2), 15 days. Besides, the “Time: 100% Weight Loss” value in the data set with LNCaP xenografts (40 mg/kg Q6DX2) was found to be 54 days; in the data set on LNCaP xenografts (50 mg/kg Q6DX2), 40 days; in the data set on LNCaP xenografts (62 mg/kg Q6DX2), 33 days. In data set [4], the “Major Plasma Metabolite” value is given as “Ala-Leu-Dox”. Besides, the mortality in the data set on normal ICR mice (75 mg/kg dose group, by Day 35) came out at 40%. Also, the “Ratio Ball-1:Namalwa” value with Namalwa cells (CD10pos) was 3. For the same molecule, the “% hydrolysis/10 hr” value in the data set on Porcine Kidney CD10 is given as 10.9 % hydrolysis/10 hr. For the same molecule, the “Fraction hydrolyzed relative to standard” value in the data set on Porcine Kidney CD10 was 1.0.
